Data reported in PubChem BioAssay AID463203 (Broad Institute, 2010).
Calls of active or inactive are those of the source.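 The calls were made as follows: active = more than half of replicate measurements showing over 20% loss of kinase signal relative to plate controls; inconclusive = some but at most half of replicates over 20% loss; inactive = no replicate over 20% signal loss.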

Target: Glycogen synthase kinase-3 alpha (Homo sapiens) (UniProt P49840)
Test: concentration-response blocking of human GSK3A – biochemical, luminescence, cell-free homogeneous, retest, dose response (AID 463203)
Details: GSK-3 alpha enzyme, ADP-Glo luminescence, 60 min

Sequence of Glycogen synthase kinase-3 alpha (Homo sapiens) (P49840 whole entry, looked up): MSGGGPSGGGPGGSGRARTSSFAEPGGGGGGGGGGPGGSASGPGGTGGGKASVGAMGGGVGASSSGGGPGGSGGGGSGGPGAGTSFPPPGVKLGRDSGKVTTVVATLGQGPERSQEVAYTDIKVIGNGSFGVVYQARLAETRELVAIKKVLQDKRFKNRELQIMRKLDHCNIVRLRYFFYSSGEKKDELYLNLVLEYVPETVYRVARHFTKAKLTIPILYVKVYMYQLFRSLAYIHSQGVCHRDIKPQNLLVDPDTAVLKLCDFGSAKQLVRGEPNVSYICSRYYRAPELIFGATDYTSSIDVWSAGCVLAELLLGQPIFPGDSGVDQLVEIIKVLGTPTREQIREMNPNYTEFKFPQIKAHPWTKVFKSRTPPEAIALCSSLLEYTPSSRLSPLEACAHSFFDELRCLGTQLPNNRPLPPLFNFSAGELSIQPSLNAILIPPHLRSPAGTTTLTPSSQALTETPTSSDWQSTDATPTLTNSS

Structure (SMILES) | AC50
Cc1ccc(N(CC(O)CN2CCCCC2)S(=O)(=O)c2ccccc2)cc1 (centres undefined) | > 30 µM (inactive)
CC(C)(C)NC(=O)CSc1ncccc1-c1nc2ccccc2[nH]1 | > 30 µM (inactive)
O=C(Nc1c(C(=O)C2CC2)oc2ccccc12)c1ccc(Cl)cc1 | > 30 µM (inactive)
COc1ccc(COC(=O)C2=C(C)NC(=O)NC2c2cccc(Br)c2)cc1 (centres undefined) | 16.9 µM
O=C(Cc1c(F)cccc1Cl)Nc1ncc([N+](=O)[O-])s1 | 2.43 µM
COc1ccc(Nc2nc(-c3ccccc3)cs2)cc1 | > 30 µM (inactive)
COc1ccc(CC(=O)Oc2cc(C)ccc2C)cc1 | > 30 µM (inactive)
COc1cccc(/C=C2\Oc3cc(OCC(=O)N4CCC[C@H]4C(=O)O)ccc3C2=O)c1 | > 30 µM (inactive)
CC(C)CC(O)C1CCN(C(=O)CCc2nnc(-c3ccc4c(c3)OCO4)o2)CC1 (centres undefined) | > 30 µM (inactive)
COC(=O)[C@H](C)NC(=O)NCc1ccccc1F | > 30 µM (inactive)
COc1cccc(/C=N/NC(=O)C(=O)N2CCCC2)c1OC | > 30 µM (inactive)
N#CC1=C2SCN(Cc3ccco3)CN2C(=O)CC1c1c(F)cccc1Cl (centres undefined) | > 30 µM (inactive)
CC(C)=CCc1cc(-c2oc3cc(O)cc(O)c3c(=O)c2O)ccc1O | 9.4 µM
O=C(Nc1ccccc1)c1ccc(CSc2ncccn2)cc1 | > 30 µM (inactive)
C=CCSc1ncnc2c1oc1nc3c(cc12)COC(C)(C)C3 | > 30 µM (inactive)
Cc1cccc(C(=O)Nc2nccs2)c1[N+](=O)[O-] | > 30 µM (inactive)
COc1ccc(-c2cc(=O)c3ccccc3s2)cc1 | > 30 µM (inactive)
Clc1ccc(CSc2nncn2-c2ccc3c(c2)OCCO3)cc1 | > 30 µM (inactive)
Cc1nc(C)c(C(=O)Nc2ncc([N+](=O)[O-])s2)o1 | > 30 µM (inactive)
Cc1[nH]nc(NCCO)c1[N+](=O)[O-] | > 30 µM (inactive)
O=C(COc1ccccc1Cl)Nc1ccc(Cl)cn1 | > 30 µM (inactive)
Cc1ccc(CSc2nnc(SCC(=O)N/N=C/c3ccc(C(=O)O)cc3)s2)cc1 | > 30 µM (inactive)
O=Cc1cn(-c2ccccc2)nc1-c1cccnc1 | > 30 µM (inactive)
CCOc1cccc(-c2c(C(=O)N/N=C/c3ccncc3)nnn2-c2nonc2N)c1 | 2.13 µM
CCOC(=O)c1cc(-c2ccc(F)cc2)n(CC(=O)NCc2cccnc2)c1C | > 30 µM (inactive)
CCOc1cccc(-c2c(C(=O)N/N=C(\C)c3ccncc3)nnn2-c2nonc2N)c1 | 1.45 µM

Structure (SMILES) | AC50
CCC(C)[C@H](NC(=O)NCc1ccc(Cl)cc1)C(=O)OC (some centres undefined) | > 30 µM (inactive)
Cc1cc(NC(=O)c2cccc(S(=O)(=O)N3CC(c4ccccc4)CC3=O)c2)no1 (centres undefined) | > 30 µM (inactive)
O=C(Nc1nc2c(s1)CCCC2)c1ccc(Br)s1 | > 30 µM (inactive)
CCCn1c2ccccc2c2nc3ccccc3nc21 | > 30 µM (inactive)
CCOc1ccc(-c2nonc2NC(=O)c2ccco2)cc1 | > 30 µM (inactive)
CCOC(=O)c1sc(NC(=O)C2CCC2)cc1C | > 30 µM (inactive)
CC1CCN(CCCNc2cc(NCCO)c([N+](=O)[O-])c3nonc23)CC1 | > 30 µM (inactive)
NC(=O)c1nnn(-c2ccccc2)c1N | > 30 µM (inactive)
O=C(Nc1cccc(-c2nc3cccnc3s2)c1)c1cccnc1Cl | 8.59 µM
CC1=C(C(=O)OCc2ccc3c(c2)OCO3)C(c2cccc([N+](=O)[O-])c2)NC(=O)N1 (centres undefined) | 3.28 µM
c1cc2[nH]snc2c2nc(C3CC3)nc12 | 20.8 µM
CCOc1ccc(S(=O)(=O)c2c(C(=O)c3ccc(C)cc3)cnc3cc4c(cc23)OCCO4)cc1 | > 30 µM (inactive)
COc1cccc(C2C3(C#N)C(N)=NC(OC)(OC)C23C#N)c1 (centres undefined) | > 30 µM (inactive)
CCSc1nc2c(c(=O)[nH]1)C(c1ccccn1)C1=C(CC(C)(C)CC1=O)N2 (centres undefined) | > 30 µM (inactive)
O=C(NCCCn1ccnc1)C(=O)NC1CCCCC1 | > 30 µM (inactive)
COc1ccc(CCNC(=O)c2nnn(-c3ccccc3OC)c2N)cc1OC | 14.8 µM
Cc1ccc(N2CC(C(=O)Nc3ncc([N+](=O)[O-])s3)CC2=O)cc1 (centres undefined) | 11.4 µM
CC(=O)c1sc(NC(=O)c2ccc3c(c2)OCO3)nc1C | > 30 µM (inactive)
CC(=O)c1sc(NC(=O)CN2C(=O)NC3(CCCC3)C2=O)nc1-c1ccccc1 | 20.7 µM
CCOc1cccc2sc(=NC(=O)c3ccco3)n(CC(=O)OC)c12 | 7.61 µM
Nc1c(C(=O)O)cnc2c(-c3ccc(Cl)cc3)cnn12 | 15.8 µM
CC1(C)CC(=O)C(C(c2cccnc2)C2C(=O)CC(C)(C)CC2=O)C(=O)C1 | > 30 µM (inactive)
CCOc1ccc2ncc(S(=O)(=O)c3ccccc3)c(N3CCN(c4ccc(OC)cc4)CC3)c2c1 | > 30 µM (inactive)
CCC(Oc1ccccc1)C(=O)Nc1ncc([N+](=O)[O-])s1 (centres undefined) | > 30 µM (inactive)
CC1CCC[C@H](O)CCCCCc2cc(O)cc(O)c2C(=O)O1 (some centres undefined) | > 30 µM (inactive)
Cc1csc(NC(=O)C2CCCN(S(=O)(=O)c3cnc[nH]3)C2)n1 (centres undefined) | > 30 µM (inactive)

Structure (SMILES) | AC50
C#CCOCCOCCOCCNc1nc(N2CCN(C(=O)CCCCCCCCCCNC(=O)[C@H](CCCCN)n3cc(C)nn3)CC2)nc(N2CCN(C(=O)CCCCCCCCCCNC(=O)[C@@H]([C@H](C)CC)n3cc(CCCCCN)nn3)CC2)n1 | > 30 µM (inactive)
O=C(CSc1ncnc2sc3c(c12)CCC3)NCC1CCCO1 (centres undefined) | > 30 µM (inactive)
Brc1ccccc1C1=Nn2c(nnc2-c2ccccc2)SC1 | > 30 µM (inactive)
Brc1ccc(C2=Nn3c(nnc3-c3cccnc3)SC2)s1 | > 30 µM (inactive)
COCCn1c(SCC(=O)Nc2cc(C)on2)nc2ccccc21 | > 30 µM (inactive)
O=[N+]([O-])c1cc(S(=O)(=O)N2CCCC2)ccc1NCCCN1CCOCC1 | > 30 µM (inactive)
CCCOc1cc2c(C#N)c(N3CCCC3)nc(N)c2c(N)n1 | > 30 µM (inactive)
O=C1c2cnc3nc(SCc4cccc(Cl)c4)nn3c2CC2c3ccccc3CCN12 (centres undefined) | > 30 µM (inactive)
Nc1nc(N)nc(-c2cc(F)ccc2O)n1 | 18.9 µM
CSc1nc2n(n1)C(c1ccccn1)C1=C(CC(C)(C)CC1=O)N2 (centres undefined) | > 30 µM (inactive)
CSc1nc2sc3c(c2c(=O)[nH]1)CCC(C)C3 (centres undefined) | > 30 µM (inactive)
O=[N+]([O-])c1cccnc1N1CCCNCC1 | > 30 µM (inactive)
Cc1cc(/C=N\NC(=O)c2cccs2)c(C)n1-c1ccc2ncccc2c1 | > 30 µM (inactive)
CC(C)c1c(C(=O)N/N=C/c2cccnc2)nnn1-c1nonc1N | > 30 µM (inactive)
COC(=O)C1=C(C)N(CC(C)C)C(=O)/C1=C\c1cccs1 | > 30 µM (inactive)
O=C(NCCCN1CCOCC1)c1ccc(Cl)cc1[N+](=O)[O-] | > 30 µM (inactive)
O=C(O)Cn1c(=O)c2c3c(sc2n(Cc2ccc(F)cc2)c1=O)CCCC3 | > 30 µM (inactive)
N/C(=N\OC(=O)c1ccc(Br)cc1)c1cccc([N+](=O)[O-])c1 | > 30 µM (inactive)
O=C(c1ccco1)N(Cc1ccccc1)c1cccc([N+](=O)[O-])c1 | > 30 µM (inactive)
Cc1cnc(NC(=O)C2CC(=O)N(c3cccc(Cl)c3)C2)s1 (centres undefined) | 12.6 µM
O=C(O)c1ccc2c(c1Nc1ccccc1)C(=O)c1ccccc1C2=O | 18.6 µM
CCCC(=O)NNC(=O)c1c(O)c2ccccc2[nH]c1=O | > 30 µM (inactive)
CCCCCCCOC(=O)C1=C(C)Nc2ncnn2C1c1cccs1 (centres undefined) | > 30 µM (inactive)
CCc1cc2c3c(c(=O)oc2cc1O)CCCC3 | > 30 µM (inactive)
N#CC1=C2SCN(c3ccccc3)CN2C(=O)CC1c1c(Cl)cccc1Cl (centres undefined) | > 30 µM (inactive)
COc1ccc2nc(SCC(=O)Nc3nccs3)[nH]c2c1 | 7.82 µM

Structure (SMILES) | AC50
COc1ccccc1N1CC(C(=O)Nc2nc(C)cs2)CC1=O (centres undefined) | > 30 µM (inactive)
CCCOc1ccccc1NC(=O)Nc1ccccc1Cl | > 30 µM (inactive)
CC1(C)CC(=O)C(CS(=O)(=O)c2ccccc2)=C(O)C1 | > 30 µM (inactive)
Cc1ccccc1CSc1nnc(-c2ccncc2)n1C | > 30 µM (inactive)
Cc1ccc(C)c(-n2c3nc(=O)n(C)c(=O)c-3cc3ccccc32)c1 | 31.3 µM
O=C(NCCc1csc(-c2cccnc2)n1)c1ccc(Br)o1 | 17.8 µM
Nc1nc(NCCOCCO)nc(N2CCCCCC2)c1[N+](=O)[O-] | 26.4 µM
Cc1ccc2nc(C3CCCCC3)[nH]c2c1 | > 30 µM (inactive)
CCC(=O)C1CCCN(C(=O)CCc2nnc(-c3ccc4c(c3)OCO4)o2)C1 (centres undefined) | > 30 µM (inactive)
O=[N+]([O-])c1cccc(-c2ccn[nH]2)c1 | > 30 µM (inactive)
CCCCNc1nc(N)nc(-c2cc(Cl)ccc2O)n1 | 3.04 µM
CCOC(=O)c1cc(CC)sc1NC(=O)C1CC1 | > 30 µM (inactive)
O=C(CN1CCCCCC1)Nc1ccccc1Oc1ccccc1 | > 30 µM (inactive)
COc1ccccc1NC(=O)c1ccc(C(=O)c2ccccc2)o1 | > 30 µM (inactive)
COC(=O)c1sc(NC(=O)COc2ccc(OC)cc2)nc1C | 28.6 µM
CCCCc1cc(=O)oc2cc(O)ccc12 | 25.9 µM
CN1/C(=C/C(=S)NC(=O)C2(C)CC2(Cl)Cl)C(C)(C)c2ccccc21 (centres undefined) | > 30 µM (inactive)
O=C(NCC1CCN(Cc2ccccc2Cl)CC1)Nc1ccccc1F | > 30 µM (inactive)
COc1ccc(OC)c(NC(=O)c2nnn(Cc3ccc(Br)cc3F)c2N)c1 | > 30 µM (inactive)
Cc1oc2ccc(O)cc2c1C(=O)c1ccc(Br)cc1 | > 30 µM (inactive)
O=C(CSc1nnc(-c2ccc(O)cc2)o1)Nc1ccc2c(c1)OCCO2 | 0.463 µM
Cc1ccnc(NC(=O)CCC(=O)N(CC(=O)NCc2ccc(F)cc2)Cc2ccccc2)c1 | 11.4 µM
NNc1nc2sc3c(c2c(=O)[nH]1)CCc1ccccc1-3 | > 30 µM (inactive)
CCCCn1c(SCC(=O)Nc2sc3c(c2C(N)=O)CCC3)nnc1-c1ccccc1 | > 30 µM (inactive)
COc1cc(/C=C2/NC(=O)NC2=O)cc(Br)c1OCc1cccc(C(=O)O)c1 | 6.54 µM
COc1ccccc1-c1noc(CSc2nc(C)cc(=O)[nH]2)n1 | > 30 µM (inactive)
